Test results published in PubChem BioAssay (NCI).
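Step 1: Grow cells in 96-well plates. Step 2: Expose to compound for 48 hours at 5 concentrations. Step 3: Interpolate endpoints linearly; if unreached, use highest concentration. At the TGI there is no net growth.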

Experiments:
Assay in all cases: NCI anticancer screen, dose series, 48 h
786-0 renal = system: 786-0 renal
A498 renal = system: A498 renal
A549 NSCLC = system: A549 NSCLC
ACHN renal = system: ACHN renal
BT-549 breast = system: BT-549 breast
CAKI-1 renal = system: CAKI-1 renal
CCRF-CEM leukemia = system: CCRF-CEM leukemia
COLO 205 colon = system: COLO 205 colon
DU-145 prostate = system: DU-145 prostate
EKVX NSCLC = system: EKVX NSCLC
HCC-2998 colon = system: HCC-2998 colon
HCT-116 colon = system: HCT-116 colon
HCT-15 colon = system: HCT-15 colon
HL-60(TB) leukemia = system: HL-60(TB) leukemia
HOP-62 NSCLC = system: HOP-62 NSCLC
HOP-92 NSCLC = system: HOP-92 NSCLC
HS 578T breast = system: HS 578T breast
HT29 colon = system: HT29 colon
IGROV1 ovarian = system: IGROV1 ovarian
K-562 leukemia = system: K-562 leukemia
KM12 colon = system: KM12 colon
LOX IMVI melanoma = system: LOX IMVI melanoma
M14 melanoma = system: M14 melanoma
MALME-3M melanoma = system: MALME-3M melanoma
MCF7 breast = system: MCF7 breast
MDA-MB-231 breast = system: MDA-MB-231 breast
MDA-MB-435 = system: MDA-MB-435
MDA-N = system: MDA-N
MOLT-4 leukemia = system: MOLT-4 leukemia
NCI-H226 lung = system: NCI-H226 lung
NCI-H23 lung = system: NCI-H23 lung
NCI-H460 lung = system: NCI-H460 lung
NCI-H522 lung = system: NCI-H522 lung
NCI/ADR-RES ovarian = system: NCI/ADR-RES ovarian
OVCAR-3 ovarian = system: OVCAR-3 ovarian
OVCAR-4 ovarian = system: OVCAR-4 ovarian
OVCAR-5 ovarian = system: OVCAR-5 ovarian
OVCAR-8 ovarian = system: OVCAR-8 ovarian
PC-3 prostate = system: PC-3 prostate
RPMI-8226 leukemia = system: RPMI-8226 leukemia
RXF 393 renal = system: RXF 393 renal
SF-268 CNS = system: SF-268 CNS
SF-295 CNS = system: SF-295 CNS
SF-539 CNS = system: SF-539 CNS
SK-MEL-2 melanoma = system: SK-MEL-2 melanoma
SK-MEL-28 melanoma = system: SK-MEL-28 melanoma
SK-MEL-5 melanoma = system: SK-MEL-5 melanoma
SK-OV-3 ovarian = system: SK-OV-3 ovarian
SN12C renal = system: SN12C renal
SNB-19 CNS = system: SNB-19 CNS
SNB-75 CNS = system: SNB-75 CNS
SR leukemia = system: SR leukemia
SW-620 colon = system: SW-620 colon
T-47D breast = system: T-47D breast
TK-10 renal = system: TK-10 renal
U251 CNS = system: U251 CNS
UACC-257 melanoma = system: UACC-257 melanoma
UACC-62 melanoma = system: UACC-62 melanoma
UO-31 renal = system: UO-31 renal

For `CC1OC(OC2C(O[C@H]3CC[C@@]4(C)C(=CC[C@H]5[C@@H]6C[C@@H]7O[C@]8(CC[C@@H](C)CO8)[C@@H](C)[C@@H]7[C@@]6(C)CC[C@@H]54)C3)OC(CO)C(O)C2O)C(O)C(O)C1O` (stereo not given in full), the TGI (786-0 renal) was 2.37 µM, the TGI (A498 renal) was 2.98 µM and the TGI (A549 NSCLC) was 1.76 µM. For the same compound, the TGI (ACHN renal) was 3.44 µM, the TGI (BT-549 breast) was 8.31 µM and the TGI (CAKI-1 renal) was 3.54 µM. For the same compound, the TGI (CCRF-CEM leukemia) was 1.21 µM, the TGI (COLO 205 colon) was 6.33 µM and the TGI (DU-145 prostate) was 2.53 µM. For the same compound, the TGI (EKVX NSCLC) was 6.47 µM, the TGI (HCC-2998 colon) was 2.26 µM and the TGI (HCT-116 colon) was 3.95 µM. It also gave a TGI (HCT-15 colon) of 5.21 µM, a TGI (HL-60(TB) leukemia) of 2.87 µM and a TGI (HOP-62 NSCLC) of 2.67 µM. It also gave a TGI (HOP-92 NSCLC) of 6.17 µM, a TGI (HS 578T breast) of 3.85 µM and a TGI (HT29 colon) of 2.37 µM. It also gave a TGI (IGROV1 ovarian) of 6.08 µM, a TGI (K-562 leukemia) of over 25 µM and a TGI (KM12 colon) of 2.19 µM. The TGI (LOX IMVI melanoma) was 3.49 µM, the TGI (M14 melanoma) was 2.44 µM and the TGI (MALME-3M melanoma) was 6.65 µM. For the same compound, the TGI (MCF7 breast) was 4.12 µM, the TGI (MDA-MB-231 breast) was 3.14 µM and the TGI (MDA-MB-435) was 2.8 µM. For the same compound, the TGI (MDA-N) was 6.54 µM, the TGI (MOLT-4 leukemia) was over 25 µM and the TGI (NCI-H226 lung) was 8.03 µM. It also gave a TGI (NCI-H23 lung) of 5.61 µM, a TGI (NCI-H460 lung) of 2.34 µM and a TGI (NCI-H522 lung) of 2.77 µM. It also gave a TGI (NCI/ADR-RES ovarian) of 4.64 µM, a TGI (OVCAR-3 ovarian) of 6.65 µM and a TGI (OVCAR-4 ovarian) of 2.47 µM. It also gave a TGI (OVCAR-5 ovarian) of 6.16 µM, a TGI (OVCAR-8 ovarian) of 3.63 µM and a TGI (PC-3 prostate) of 1.63 µM. For the same compound, the TGI (RPMI-8226 leukemia) was over 25 µM, the TGI (RXF 393 renal) was 3.04 µM and the TGI (SF-268 CNS) was 5.46 µM. It also gave a TGI (SF-295 CNS) of 2.44 µM, a TGI (SF-539 CNS) of 4.53 µM and a TGI (SK-MEL-2 melanoma) of 6.21 µM. The TGI (SK-MEL-28 melanoma) was over 11.8 µM, the TGI (SK-MEL-5 melanoma) was 7.52 µM and the TGI (SK-OV-3 ovarian) was 6.14 µM. For the same compound, the TGI (SN12C renal) was 3.27 µM, the TGI (SNB-19 CNS) was 2.38 µM and the TGI (SNB-75 CNS) was 2.62 µM. It also gave a TGI (SR leukemia) of 6.71 µM, a TGI (SW-620 colon) of 2.31 µM and a TGI (T-47D breast) of 8.66 µM. The TGI (TK-10 renal) was 3.57 µM, the TGI (U251 CNS) was 1.87 µM and the TGI (UACC-257 melanoma) was 4.9 µM. For the same compound, the TGI (UACC-62 melanoma) was 2.7 µM and the TGI (UO-31 renal) was 1.98 µM.

In the case of `CCOC(=O)Nc1cc2ccccc2c(N=Nc2ccccc2)c1O`, the TGI (786-0 renal) is reported as over 100 µM, the TGI (A498 renal) is reported as over 100 µM and the TGI (A549 NSCLC) is reported as over 100 µM. For the same compound, the TGI (ACHN renal) was over 100 µM, the TGI (BT-549 breast) was over 100 µM and the TGI (CAKI-1 renal) was over 100 µM. For the same compound, the TGI (CCRF-CEM leukemia) was over 100 µM, the TGI (COLO 205 colon) was over 100 µM and the TGI (DU-145 prostate) was over 100 µM. It also gave a TGI (EKVX NSCLC) of over 100 µM, a TGI (HCC-2998 colon) of over 100 µM and a TGI (HCT-116 colon) of over 100 µM. The TGI (HCT-15 colon) was over 100 µM, the TGI (HL-60(TB) leukemia) was over 100 µM and the TGI (HOP-62 NSCLC) was over 100 µM. It also gave a TGI (HOP-92 NSCLC) of over 100 µM, a TGI (HS 578T breast) of over 100 µM and a TGI (HT29 colon) of over 100 µM. For the same compound, the TGI (IGROV1 ovarian) was over 100 µM, the TGI (K-562 leukemia) was over 100 µM and the TGI (KM12 colon) was over 100 µM. For the same compound, the TGI (M14 melanoma) was over 100 µM, the TGI (MALME-3M melanoma) was over 100 µM and the TGI (MCF7 breast) was over 100 µM. The TGI (MDA-MB-231 breast) was over 100 µM, the TGI (MDA-MB-435) was over 100 µM and the TGI (MDA-N) was over 100 µM. For the same compound, the TGI (MOLT-4 leukemia) was over 100 µM, the TGI (NCI-H226 lung) was over 100 µM and the TGI (NCI-H23 lung) was over 100 µM. The TGI (NCI-H460 lung) was over 100 µM, the TGI (NCI-H522 lung) was over 100 µM and the TGI (NCI/ADR-RES ovarian) was over 100 µM. The TGI (OVCAR-3 ovarian) was over 100 µM, the TGI (OVCAR-4 ovarian) was 49.3 µM and the TGI (OVCAR-5 ovarian) was over 100 µM. The TGI (OVCAR-8 ovarian) was over 100 µM, the TGI (PC-3 prostate) was over 100 µM and the TGI (RPMI-8226 leukemia) was over 100 µM. The TGI (RXF 393 renal) was 69.4 µM, the TGI (SF-268 CNS) was over 100 µM and the TGI (SF-295 CNS) was over 100 µM. For the same compound, the TGI (SF-539 CNS) was 35.8 µM, the TGI (SK-MEL-2 melanoma) was over 100 µM and the TGI (SK-MEL-28 melanoma) was over 100 µM. The TGI (SK-MEL-5 melanoma) was over 100 µM, the TGI (SK-OV-3 ovarian) was over 100 µM and the TGI (SN12C renal) was over 100 µM. The TGI (SNB-19 CNS) was over 100 µM, the TGI (SNB-75 CNS) was over 100 µM and the TGI (SR leukemia) was over 100 µM. It also gave a TGI (SW-620 colon) of over 100 µM, a TGI (T-47D breast) of over 100 µM and a TGI (TK-10 renal) of over 100 µM. It also gave a TGI (U251 CNS) of over 100 µM, a TGI (UACC-257 melanoma) of over 100 µM and a TGI (UACC-62 melanoma) of over 100 µM. It also gave a TGI (UO-31 renal) of over 100 µM.

`O=C(SCc1cccc2ccccc12)c1ccc(Cl)cc1` showed a TGI (786-0 renal) of over 100 µM, a TGI (A498 renal) of over 100 µM and a TGI (A549 NSCLC) of over 100 µM. The TGI (ACHN renal) was over 100 µM, the TGI (BT-549 breast) was over 100 µM and the TGI (CAKI-1 renal) was over 100 µM. For the same compound, the TGI (CCRF-CEM leukemia) was over 100 µM, the TGI (COLO 205 colon) was over 100 µM and the TGI (DU-145 prostate) was over 100 µM. For the same compound, the TGI (EKVX NSCLC) was over 100 µM, the TGI (HCC-2998 colon) was over 100 µM and the TGI (HCT-116 colon) was over 100 µM. It also gave a TGI (HCT-15 colon) of over 100 µM, a TGI (HL-60(TB) leukemia) of over 100 µM and a TGI (HOP-62 NSCLC) of over 100 µM. The TGI (HOP-92 NSCLC) was over 100 µM, the TGI (HS 578T breast) was over 100 µM and the TGI (HT29 colon) was over 100 µM. It also gave a TGI (IGROV1 ovarian) of over 100 µM, a TGI (K-562 leukemia) of over 100 µM and a TGI (KM12 colon) of over 100 µM. The TGI (LOX IMVI melanoma) was over 100 µM, the TGI (M14 melanoma) was over 100 µM and the TGI (MALME-3M melanoma) was over 100 µM. For the same compound, the TGI (MCF7 breast) was over 100 µM, the TGI (MDA-MB-231 breast) was over 100 µM and the TGI (MDA-MB-435) was over 100 µM. The TGI (MDA-N) was over 100 µM, the TGI (NCI-H226 lung) was over 100 µM and the TGI (NCI-H23 lung) was over 100 µM. The TGI (NCI-H460 lung) was over 100 µM, the TGI (NCI-H522 lung) was over 100 µM and the TGI (NCI/ADR-RES ovarian) was over 100 µM. For the same compound, the TGI (OVCAR-3 ovarian) was over 100 µM, the TGI (OVCAR-4 ovarian) was over 100 µM and the TGI (OVCAR-5 ovarian) was over 100 µM. The TGI (OVCAR-8 ovarian) was over 100 µM, the TGI (PC-3 prostate) was over 100 µM and the TGI (RPMI-8226 leukemia) was over 100 µM. It also gave a TGI (RXF 393 renal) of over 100 µM, a TGI (SF-268 CNS) of over 100 µM and a TGI (SF-295 CNS) of over 100 µM. The TGI (SF-539 CNS) was over 100 µM, the TGI (SK-MEL-2 melanoma) was over 100 µM and the TGI (SK-MEL-28 melanoma) was over 100 µM. It also gave a TGI (SK-MEL-5 melanoma) of over 100 µM, a TGI (SK-OV-3 ovarian) of over 100 µM and a TGI (SN12C renal) of over 100 µM. The TGI (SNB-19 CNS) was over 100 µM, the TGI (SNB-75 CNS) was over 100 µM and the TGI (SR leukemia) was over 100 µM. For the same compound, the TGI (SW-620 colon) was over 100 µM, the TGI (T-47D breast) was over 100 µM and the TGI (TK-10 renal) was over 100 µM. The TGI (U251 CNS) was over 100 µM, the TGI (UACC-257 melanoma) was over 100 µM and the TGI (UACC-62 melanoma) was over 100 µM. It also gave a TGI (UO-31 renal) of over 100 µM.
